This is an account of results in US12123048B2, “Fluorinated 4′-alkylumbelliferyl a-D-glucopyranosides, biological sterilization indicators including the same and methods of using the same” (3M INNOVATIVE PROPERTIES COMPANY, priority 2018, dated 2024).

This experiment relates to Geobacillus stearothermophilus spores (ATCC 7953). The experiment in a line: Fluorescence measurements using enzyme substrates and Geobacillus stearothermophilus spores in LB broth. As to conditions: substrate 0.3 mg/mL, 5×10^6 spores, 60° C. The experiment is classed as cell-based. The method, then:
Luria-Bertani (LB) broth was prepared by dissolving tryptone (10 g/L), yeast extract (5 g/L), and NaCl (5 g/L) in deionized water. In the examples, 6′-fluoro-4′-methylumbelliferyl α-D-glucopyranoside (0.3 mg/mL) or 5′-fluoro-4′-methylumbelliferyl α-D-glucopyranoside (0.3 mg/mL) was added to the broth. In the comparative examples, 4′-methylumbelliferyl α-D-glucopyranoside (MUG) (0.3 mg/mL) or 6′,8′-Difluoro-4′-methylumbelliferyl α-D-glucopyranoside (0.3 mg/mL) was added to the broth. The pH of the broth was adjusted to either pH 6, pH 7, pH 8, or pH 9 using 0.1 N hydrochloric acid or 1N sodium hydroxide solutions. The broth was passed through a 0.22 micron filter prior to use.
LB broth (pH 6) containing 6′-fluoro-4′-methylumbelliferyl α-D-glucopyranoside (0.3 mg/mL) (enzyme substrate of Example 1) was added to two wells (100 microliters per well) of a black 96-well microtiter plate with optically clear, flat bottom wells (NUNC #165301, Thermo Fisher Scientific, Waltham, MA). A 5 microliter aqueous suspension containing 5×10^6 Geobacillus stearothermophilus spores (ATCC 7953) was added to each well of the microtiter plate. Next, the contents of each well were mixed using a multiple aspiration/delivery sequence with the pipet. […] The top of the plate was covered with an optically clear sealing film (product #4311971, Applied Biosystems Corporation, Foster City, CA). The plate was warmed at 60° C. and shaken in a linear direction. Fluorescence readings (360 nm excitation/450 nm emission at 50% gain) were taken from the bottom of the plate. A reading was taken at an initial time point of 10 seconds and then at +1 minute intervals thereafter. A Synergy Neo2 fluorescence plate reader (BioTek Company, Winooski, VT) was used. In Table 1, the mean fluorescence values detected (RFU) at times of 10 seconds, +5 minutes, +10 minutes, and +30 minutes are reported. The mean fluorescence values detected for the control wells were 978 RFU at 10 seconds; 920 RFU at +5 minutes; 870 RFU at +10 minutes, and 746 RFU at +30 minutes.
The procedure of Example 3 was followed, with the exception that the LB broth (pH 6) containing 6′-fluoro-4′-methylumbelliferyl α-D-glucopyranoside (0.3 mg/mL) was replaced with LB broth (pH 6) containing 5′-fluoro-4′-methylumbelliferyl-α-D-glucopyranoside (0.3 mg/mL) (enzyme substrate of Example 2). In Table 1, the mean fluorescence values detected (RFU) at times of 10 seconds, +5 minutes, +10 minutes, and +30 minutes are reported. The mean fluorescence values detected for the control wells were 828 RFU at 10 seconds; 784 RFU at +5 minutes; 738 RFU at +10 minutes, and 622 RFU at +30 minutes.
The procedure of Example 3 was followed, with the exception that the LB broth (pH 6) containing 6′-fluoro-4′-methylumbelliferyl α-D-glucopyranoside (0.3 mg/mL) was replaced with LB broth (pH 6) containing 4-methylumbelliferyl α-D-glucopyranoside (0.3 mg/mL) (MUG). In Table 1, the mean fluorescence values detected (RFU) at times of 10 seconds, +5 minutes, +10 minutes, and +30 minutes are reported. The mean fluorescence values detected for the control wells were 868 RFU at 10 seconds; 802 RFU at +5 minutes; 756 RFU at +10 minutes, and 656 RFU at +30 minutes.
The procedure of Example 3 was followed, with the exception that the LB broth (pH 6) containing 6′-fluoro-4′-methylumbelliferyl α-D-glucopyranoside (0.3 mg/mL) was replaced with LB broth (pH 6) containing 6′,8′-difluoro-4′-methylumbelliferyl α-D-glucopyranoside (0.3 mg/mL) (enzyme substrate of Comparative Example A). In Table 1, the mean fluorescence values detected (RFU) at times of 10 seconds, +5 minutes, +10 minutes, and +30 minutes are reported. The mean fluorescence values detected for the control wells were 1,768 RFU at 10 seconds; 1,750 RFU at +5 minutes; 1,743 RFU at +10 minutes, and 1,805 RFU at +30 minutes. […]

[1] abbreviates: pH 6 LB broth, 360 nm excitation/450 nm emission.

The structures appear in SMILES notation. Bounds are passed on as bounds.

Take `Cc1cc(=O)oc2c(F)c(O[C@H]3O[C@H](CO)[C@@H](O)[C@H](O)[C@H]3O)c(F)cc12` [Comparative Example A, 6′,8′-Difluoro-4′-methylumbelliferyl α-D-glucopyranoside]: the “MEASURED FLUORESCENCE, RFU 10 sec” value amounted to 29807 RFU under setting [1], 32795 RFU (pH 7 LB broth), 20878 RFU (pH 8 LB broth) and 4119 RFU (pH 9 LB broth). For the same molecule, the “MEASURED FLUORESCENCE, RFU +5 min” value stood at 68823 RFU (pH 6 LB broth), 67118 RFU (pH 7 LB broth), 48312 RFU (pH 8 LB broth) and 12620 RFU (pH 9 LB broth). Moreover, the “MEASURED FLUORESCENCE, RFU +10 min” value runs as follows: (pH 6 LB broth) 85625 RFU; (pH 7 LB broth) 89943 RFU; (pH 8 LB broth) 77765 RFU; (pH 9 LB broth) 31290 RFU. Also, the “MEASURED FLUORESCENCE, RFU +30 min” value (pH 6 LB broth) is recorded as over 100000 RFU; the “MEASURED FLUORESCENCE, RFU +30 min” value (pH 7 LB broth) is recorded as over 100000 RFU; the “MEASURED FLUORESCENCE, RFU +30 min” value (pH 8 LB broth) is over 100000 RFU; the “MEASURED FLUORESCENCE, RFU +30 min” value (pH 9 LB broth) was determined as 77404 RFU.
For the molecule `Cc1cc(=O)oc2cc(O[C@H]3O[C@H](CO)[C@@H](O)[C@H](O)[C@H]3O)c(F)cc12` [Example 1, 6′-Fluoro-4′-methylumbelliferyl α-D-glucopyranoside], the “MEASURED FLUORESCENCE, RFU 10 sec” value turned out to be 11764 RFU under setting [1], 24718 RFU (pH 7 LB broth), 11298 RFU (pH 8 LB broth) and 2823 RFU (pH 9 LB broth). The “MEASURED FLUORESCENCE, RFU +5 min” value (pH 6 LB broth) is 30536 RFU; the “MEASURED FLUORESCENCE, RFU +5 min” value (pH 7 LB broth) was determined as 54317 RFU; the “MEASURED FLUORESCENCE, RFU +5 min” value (pH 8 LB broth) amounted to 32225 RFU; the “MEASURED FLUORESCENCE, RFU +5 min” value (pH 9 LB broth) came out at 8863 RFU. The “MEASURED FLUORESCENCE, RFU +10 min” value was found to be 51188 RFU (pH 6 LB broth), 79851 RFU (pH 7 LB broth), 61862 RFU (pH 8 LB broth) and 22809 RFU (pH 9 LB broth). Moreover, the “MEASURED FLUORESCENCE, RFU +30 min” value (pH 6 LB broth) was determined as 82334 RFU; the “MEASURED FLUORESCENCE, RFU +30 min” value (pH 7 LB broth) was over 100000 RFU; the “MEASURED FLUORESCENCE, RFU +30 min” value (pH 8 LB broth) was over 100000 RFU; the “MEASURED FLUORESCENCE, RFU +30 min” value (pH 9 LB broth) is given as 77125 RFU.
Turning to `Cc1cc(=O)oc2cc(O[C@H]3O[C@H](CO)[C@@H](O)[C@H](O)[C@H]3O)cc(F)c12` [Example 2, 5′-Fluoro-4′-methylumbelliferyl α-D-glucopyranoside], the “MEASURED FLUORESCENCE, RFU 10 sec” value turned out to be 1663 RFU under setting [1], 5842 RFU (pH 7 LB broth), 3928 RFU (pH 8 LB broth) and 1116 RFU (pH 9 LB broth). The “MEASURED FLUORESCENCE, RFU +5 min” value is, setting by setting: (pH 6 LB broth) 3559 RFU; (pH 7 LB broth) 15059 RFU; (pH 8 LB broth) 11692 RFU; (pH 9 LB broth) 3002 RFU. The “MEASURED FLUORESCENCE, RFU +10 min” value is, setting by setting: (pH 6 LB broth) 7048 RFU; (pH 7 LB broth) 28596 RFU; (pH 8 LB broth) 26273 RFU; (pH 9 LB broth) 7983 RFU. Moreover, the “MEASURED FLUORESCENCE, RFU +30 min” value is, setting by setting: (pH 6 LB broth) 20550 RFU; (pH 7 LB broth) 58390 RFU; (pH 8 LB broth) 66491 RFU; (pH 9 LB broth) 43732 RFU.
As for `Cc1cc(=O)oc2cc(O[C@H]3O[C@H](CO)[C@@H](O)[C@H](O)[C@H]3O)ccc12` [MUG, 4′-methylumbelliferyl-α-D-glucopyranoside], the “MEASURED FLUORESCENCE, RFU 10 sec” value is recorded as 1590 RFU under setting [1], 3298 RFU (pH 7 LB broth), 3450 RFU (pH 8 LB broth) and 1193 RFU (pH 9 LB broth). In addition, the “MEASURED FLUORESCENCE, RFU +5 min” value stood at 3100 RFU (pH 6 LB broth), 7944 RFU (pH 7 LB broth), 9572 RFU (pH 8 LB broth) and 3444 RFU (pH 9 LB broth). Besides, the “MEASURED FLUORESCENCE, RFU +10 min” value by setting is: (pH 6 LB broth) 5607 RFU; (pH 7 LB broth) 15511 RFU; (pH 8 LB broth) 21171 RFU; (pH 9 LB broth) 9258 RFU. For the same molecule, the “MEASURED FLUORESCENCE, RFU +30 min” value (pH 6 LB broth) worked out at 15915 RFU; the “MEASURED FLUORESCENCE, RFU +30 min” value (pH 7 LB broth) was 41643 RFU; the “MEASURED FLUORESCENCE, RFU +30 min” value (pH 8 LB broth) turned out to be 64484 RFU; the “MEASURED FLUORESCENCE, RFU +30 min” value (pH 9 LB broth) stood at 48874 RFU.
